According to patent US9518018B2, “3-alkoxy, thioalkyl and amino-4-amino-6-(substituted)picolinates and their use as herbicides” (Dow AgroSciences LLC, priority 2011, dated 2016):

System: desired test plant species
Test: Foliar-applied postemergence herbicidal activity in direct seeded rice (Table 6)
Type: in vivo
Details: 21 DAA
From the text: Seeds or nutlets of the desired test plant species were planted in a soil matrix prepared by mixing a loam soil (43 percent silt, 19 percent clay, and 38 percent sand, with a pH of about 8.1 and an organic matter content of about 1.5 percent) and river sand in an 80 to 20 ratio. The soil matrix was contained in plastic pots with a surface area of 139.7 cm^2. When required to ensure good germination and healthy plants, a fungicide treatment and/or other chemical or physical treatment was applied. The plants were grown for 10-17 d in a greenhouse with an approximate 14-h photoperiod which was maintained at about 29° C. during the day and 26° C. during the night. Nutrients and water were added on a regular basis and supplemental lighting was provided with overhead metal halide 1000-Watt lamps as necessary. The plants were employed for testing when they reached the second or third true leaf stage. Treatments consisted of compounds 45, 34, and 66. Weighed amounts of technical compounds were placed in individual 25 mL glass vials and dissolved in 8 mL of 97:3 v/v acetone-DMSO to obtain stock solutions. […] The spray application solutions were prepared by removing 4 mL of the stock solution and diluting with 4 mL of 97:3 v/v acetone-DMSO and continued serial dilution to obtain 1⁄2×, 1⁄4×, 1⁄8×, and 1/16× rates of the high rate. Spray solutions were diluted to the appropriate final concentrations with the addition of 8 mL of an aqueous mixture of 1.875% (v/v) Agri-dex crop oil concentrate. The final 12-mL spray solutions each contained 1.25% (v/v) Agri-dex crop oil concentrate, 32.3% acetone, and 1.0% DMSO. Compound requirements are based upon a 12 mL application volume at a rate of 187 L/ha. Spray solutions were applied to the plant material with an overhead Mandel track sprayer equipped with […] nozzles calibrated to deliver 187 L/ha over an application area of 0.503 square meters (m^2) at a spray height of 18 inches ([…]) above average plant canopy height. Control plants were sprayed in the same manner with the solvent blank. The treated plants and control plants were placed in a greenhouse as described above and watered by sub-irrigation to prevent wash-off of the test compounds. After approximately 3 weeks, the condition of the test plants, compared with that of the untreated plants, was determined visually and scored on a scale of 0 to 100 percent where 0 corresponds to no injury and 100 corresponds to complete kill. By applying the well-accepted probit analysis as described by J. Berkson in Journal of the […], 48, 565 (1953) and by D. Finney in “Probit Analysis” Cambridge University Press (1952) or by plotting the mean data and fitting a logarithmic curve to the portion of the data where there was a dose response using Microsoft Excel®, the above data can be used to calculate GR50 and GR90 values, which are defined as growth reduction factors that correspond to the effective dose of herbicide required to kill or control 50 percent or 90 percent, respectively, of a target plant.

COc1c(C(=O)OCc2ccccc2)nc(-c2ccc(Cl)c(OC)c2F)c(F)c1N [Compound 66, benzyl 4-amino-6-(4-chloro-2-fluoro-3-methoxyphenyl)-5-fluoro-3-methoxypicolinate]
Mean Visual Injury (%)-21 Days After Application AESSE (AESSE (Aeschynomene sensitiva, sensitive jointvetch), 4.38 g ae/ha): 100%
Mean Visual Injury (%)-21 Days After Application AESSE (AESSE (Aeschynomene sensitiva, sensitive jointvetch), 8.75 g ae/ha): 100%
Mean Visual Injury (%)-21 Days After Application AESSE (AESSE (Aeschynomene sensitiva, sensitive jointvetch), 17.5 g ae/ha): 100%
Mean Visual Injury (%)-21 Days After Application AESSE (AESSE (Aeschynomene sensitiva, sensitive jointvetch), 35 g ae/ha): 100%
Mean Visual Injury (%)-21 Days After Application AESSE (AESSE (Aeschynomene sensitiva, sensitive jointvetch), 70 g ae/ha): 100%
GR50 AESSE (AESSE (Aeschynomene sensitiva, sensitive jointvetch), dose to kill or control 50 percent): <4.38 g ae/ha
GR90 AESSE (AESSE (Aeschynomene sensitiva, sensitive jointvetch), dose to kill or control 90 percent): <4.38 g ae/ha
Mean Visual Injury (%)-21 Days After Application BRAPP (BRAPP (Brachiaria platyphylla, broadleaf signalgrass), 2.19 g ae/ha): 53%
Mean Visual Injury (%)-21 Days After Application BRAPP (BRAPP (Brachiaria platyphylla, broadleaf signalgrass), 4.38 g ae/ha): 72%
Mean Visual Injury (%)-21 Days After Application BRAPP (BRAPP (Brachiaria platyphylla, broadleaf signalgrass), 8.75 g ae/ha): 83%
Mean Visual Injury (%)-21 Days After Application BRAPP (BRAPP (Brachiaria platyphylla, broadleaf signalgrass), 17.5 g ae/ha): 90%
Mean Visual Injury (%)-21 Days After Application BRAPP (BRAPP (Brachiaria platyphylla, broadleaf signalgrass), 35 g ae/ha): 87%
Mean Visual Injury (%)-21 Days After Application BRAPP (BRAPP (Brachiaria platyphylla, broadleaf signalgrass), 70 g ae/ha): 93%
GR50 BRAPP (BRAPP (Brachiaria platyphylla, broadleaf signalgrass), dose to kill or control 50 percent): <2.19 g ae/ha
GR90 BRAPP (BRAPP (Brachiaria platyphylla, broadleaf signalgrass), dose to kill or control 90 percent): 34.4 g ae/ha
Mean Visual Injury (%)-21 Days After Application CYPDI (CYPDI (Cyperus difformis, small-flower flatsedge), 2.19 g ae/ha): 70%
Mean Visual Injury (%)-21 Days After Application CYPDI (CYPDI (Cyperus difformis, small-flower flatsedge), 4.38 g ae/ha): 91%
Mean Visual Injury (%)-21 Days After Application CYPDI (CYPDI (Cyperus difformis, small-flower flatsedge), 8.75 g ae/ha): 96%
Mean Visual Injury (%)-21 Days After Application CYPDI (CYPDI (Cyperus difformis, small-flower flatsedge), 17.5 g ae/ha): 100%
Mean Visual Injury (%)-21 Days After Application CYPDI (CYPDI (Cyperus difformis, small-flower flatsedge), 35 g ae/ha): 99%
Mean Visual Injury (%)-21 Days After Application CYPDI (CYPDI (Cyperus difformis, small-flower flatsedge), 70 g ae/ha): 97%
GR50 CYPDI (CYPDI (Cyperus difformis, small-flower flatsedge), dose to kill or control 50 percent): <2.19 g ae/ha
GR90 CYPDI (CYPDI (Cyperus difformis, small-flower flatsedge), dose to kill or control 90 percent): 6.6 g ae/ha
Mean Visual Injury (%)-21 Days After Application CYPES (CYPES (Cyperus esculentus, yellow nutsedge), 2.19 g ae/ha): 60%
Mean Visual Injury (%)-21 Days After Application CYPES (CYPES (Cyperus esculentus, yellow nutsedge), 4.38 g ae/ha): 67%
Mean Visual Injury (%)-21 Days After Application CYPES (CYPES (Cyperus esculentus, yellow nutsedge), 8.75 g ae/ha): 93%
Mean Visual Injury (%)-21 Days After Application CYPES (CYPES (Cyperus esculentus, yellow nutsedge), 35 g ae/ha): 94%
Mean Visual Injury (%)-21 Days After Application CYPES (CYPES (Cyperus esculentus, yellow nutsedge), 70 g ae/ha): 95%
GR50 CYPES (CYPES (Cyperus esculentus, yellow nutsedge), dose to kill or control 50 percent): <2.19 g ae/ha
GR90 CYPES (CYPES (Cyperus esculentus, yellow nutsedge), dose to kill or control 90 percent): 13.1 g ae/ha
Mean Visual Injury (%)-21 Days After Application CYPIR (CYPIR (Cyperus iria, rice flatsedge), 2.19 g ae/ha): 43%
Mean Visual Injury (%)-21 Days After Application CYPIR (CYPIR (Cyperus iria, rice flatsedge), 4.38 g ae/ha): 81%
Mean Visual Injury (%)-21 Days After Application CYPIR (CYPIR (Cyperus iria, rice flatsedge), 8.75 g ae/ha): 99%
Mean Visual Injury (%)-21 Days After Application CYPIR (CYPIR (Cyperus iria, rice flatsedge), 17.5 g ae/ha): 100%
Mean Visual Injury (%)-21 Days After Application CYPIR (CYPIR (Cyperus iria, rice flatsedge), 35 g ae/ha): 100%
Mean Visual Injury (%)-21 Days After Application CYPIR (CYPIR (Cyperus iria, rice flatsedge), 70 g ae/ha): 99%
GR50 CYPIR (CYPIR (Cyperus iria, rice flatsedge), dose to kill or control 50 percent): 2.4 g ae/ha
GR90 CYPIR (CYPIR (Cyperus iria, rice flatsedge), dose to kill or control 90 percent): 6.4 g ae/ha
Mean Visual Injury (%)-21 Days After Application ECHCG (ECHCG (Echinochloa crus-galli, barnyardgrass), 2.19 g ae/ha): 78%
Mean Visual Injury (%)-21 Days After Application ECHCG (ECHCG (Echinochloa crus-galli, barnyardgrass), 4.38 g ae/ha): 86%
Mean Visual Injury (%)-21 Days After Application ECHCG (ECHCG (Echinochloa crus-galli, barnyardgrass), 8.75 g ae/ha): 95%
Mean Visual Injury (%)-21 Days After Application ECHCG (ECHCG (Echinochloa crus-galli, barnyardgrass), 17.5 g ae/ha): 96%
Mean Visual Injury (%)-21 Days After Application ECHCG (ECHCG (Echinochloa crus-galli, barnyardgrass), 35 g ae/ha): 97%
Mean Visual Injury (%)-21 Days After Application ECHCG (ECHCG (Echinochloa crus-galli, barnyardgrass), 70 g ae/ha): 95%
GR50 ECHCG (ECHCG (Echinochloa crus-galli, barnyardgrass), dose to kill or control 50 percent): <42.19 g ae/ha
GR90 ECHCG (ECHCG (Echinochloa crus-galli, barnyardgrass), dose to kill or control 90 percent): 8.3 g ae/ha
Mean Visual Injury (%)-21 Days After Application ECHCO (ECHCO (Echinochloa colonum, junglerice), 2.19 g ae/ha): 62%
